In PubChem BioAssay (NCI):
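Tested at 5 concentrations; 48 h exposure; 96-well plates; endpoints linearly interpolated, else capped at highest concentration. Abbreviation: GI50, concentration required for 50% inhibition of growth. TGI marks complete inhibition of growth.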

Experiments:
Test in all cases: NCI-60 cell line screen, 48 h
786-0 renal = test system: 786-0 renal
A498 renal = test system: A498 renal
A549 NSCLC = test system: A549 NSCLC
ACHN renal = test system: ACHN renal
CAKI-1 renal = test system: CAKI-1 renal
CCRF-CEM leukemia = test system: CCRF-CEM leukemia
COLO 205 colon = test system: COLO 205 colon
DU-145 prostate = test system: DU-145 prostate
EKVX NSCLC = test system: EKVX NSCLC
HCC-2998 colon = test system: HCC-2998 colon
HCT-116 colon = test system: HCT-116 colon
HCT-15 colon = test system: HCT-15 colon
HL-60(TB) leukemia = test system: HL-60(TB) leukemia
HOP-62 NSCLC = test system: HOP-62 NSCLC
HOP-92 NSCLC = test system: HOP-92 NSCLC
HS 578T breast = test system: HS 578T breast
HT29 colon = test system: HT29 colon
IGROV1 ovarian = test system: IGROV1 ovarian
KM12 colon = test system: KM12 colon
LOX IMVI melanoma = test system: LOX IMVI melanoma
M14 melanoma = test system: M14 melanoma
MALME-3M melanoma = test system: MALME-3M melanoma
MCF7 breast = test system: MCF7 breast
MDA-MB-231 breast = test system: MDA-MB-231 breast
MDA-MB-435 = test system: MDA-MB-435
MDA-N = test system: MDA-N
MOLT-4 leukemia = test system: MOLT-4 leukemia
NCI-H23 lung = test system: NCI-H23 lung
NCI-H460 lung = test system: NCI-H460 lung
NCI-H522 lung = test system: NCI-H522 lung
NCI/ADR-RES ovarian = test system: NCI/ADR-RES ovarian
OVCAR-3 ovarian = test system: OVCAR-3 ovarian
OVCAR-4 ovarian = test system: OVCAR-4 ovarian
OVCAR-5 ovarian = test system: OVCAR-5 ovarian
OVCAR-8 ovarian = test system: OVCAR-8 ovarian
PC-3 prostate = test system: PC-3 prostate
RPMI-8226 leukemia = test system: RPMI-8226 leukemia
RXF 393 renal = test system: RXF 393 renal
SF-268 CNS = test system: SF-268 CNS
SF-295 CNS = test system: SF-295 CNS
SF-539 CNS = test system: SF-539 CNS
SK-MEL-2 melanoma = test system: SK-MEL-2 melanoma
SK-MEL-28 melanoma = test system: SK-MEL-28 melanoma
SK-MEL-5 melanoma = test system: SK-MEL-5 melanoma
SK-OV-3 ovarian = test system: SK-OV-3 ovarian
SN12C renal = test system: SN12C renal
SNB-19 CNS = test system: SNB-19 CNS
SNB-75 CNS = test system: SNB-75 CNS
SR leukemia = test system: SR leukemia
SW-620 colon = test system: SW-620 colon
T-47D breast = test system: T-47D breast
TK-10 renal = test system: TK-10 renal
U251 CNS = test system: U251 CNS
UACC-257 melanoma = test system: UACC-257 melanoma
UACC-62 melanoma = test system: UACC-62 melanoma
UO-31 renal = test system: UO-31 renal
K-562 leukemia = test system: K-562 leukemia
NCI-H226 lung = test system: NCI-H226 lung

In the case of `C[C@]1(O)CC[C@H]2[C@@H]3CCc4cc(O)ccc4[C@H]3CC[C@@]21C`, the TGI (786-0 renal) is reported as > 100 µM, the TGI (A498 renal) is reported as 9.61 µM and the TGI (A549 NSCLC) is reported as 77.6 µM. The TGI (ACHN renal) was > 100 µM, the TGI (CAKI-1 renal) was > 100 µM and the TGI (CCRF-CEM leukemia) was 80.1 µM. The TGI (COLO 205 colon) was > 100 µM, the GI50 (DU-145 prostate) was 1.98 µM and the TGI (DU-145 prostate) was 8.25 µM. It also gave a TGI (EKVX NSCLC) of 9.08 µM, a TGI (HCC-2998 colon) of 0.937 µM and a GI50 (HCT-116 colon) of 0.703 µM. The TGI (HCT-116 colon) was > 100 µM, the TGI (HCT-15 colon) was > 100 µM and the TGI (HL-60(TB) leukemia) was 3.49 µM. For the same compound, the GI50 (HOP-62 NSCLC) was 18.4 µM, the TGI (HOP-62 NSCLC) was > 100 µM and the TGI (HOP-92 NSCLC) was 67.8 µM. The TGI (HS 578T breast) was 4.98 µM, the TGI (HT29 colon) was > 100 µM and the TGI (IGROV1 ovarian) was 27.8 µM. The TGI (KM12 colon) was 12.1 µM, the TGI (LOX IMVI melanoma) was 72.5 µM and the TGI (M14 melanoma) was 62.4 µM. For the same compound, the TGI (MALME-3M melanoma) was 0.948 µM, the TGI (MCF7 breast) was > 100 µM and the TGI (MDA-MB-231 breast) was 88 µM. The TGI (MDA-MB-435) was 0.761 µM, the TGI (MDA-N) was 0.651 µM and the TGI (MOLT-4 leukemia) was > 100 µM. The TGI (NCI-H23 lung) was > 100 µM, the TGI (NCI-H460 lung) was > 100 µM and the TGI (NCI-H522 lung) was 5.08 µM. For the same compound, the TGI (NCI/ADR-RES ovarian) was > 100 µM, the GI50 (OVCAR-3 ovarian) was 0.663 µM and the TGI (OVCAR-3 ovarian) was 42.9 µM. The TGI (OVCAR-4 ovarian) was > 100 µM, the TGI (OVCAR-5 ovarian) was > 100 µM and the TGI (OVCAR-8 ovarian) was 64.8 µM. For the same compound, the TGI (PC-3 prostate) was > 100 µM, the TGI (RPMI-8226 leukemia) was 4.81 µM and the TGI (RXF 393 renal) was 4.05 µM. The TGI (SF-268 CNS) was 68.3 µM, the TGI (SF-295 CNS) was 13 µM and the TGI (SF-539 CNS) was 2.27 µM. The TGI (SK-MEL-2 melanoma) was > 100 µM, the TGI (SK-MEL-28 melanoma) was > 100 µM and the TGI (SK-MEL-5 melanoma) was 11.7 µM. For the same compound, the TGI (SK-OV-3 ovarian) was > 100 µM, the GI50 (SN12C renal) was 10.2 µM and the TGI (SN12C renal) was > 100 µM. The TGI (SNB-19 CNS) was > 100 µM, the TGI (SNB-75 CNS) was > 100 µM and the TGI (SR leukemia) was 0.668 µM. For the same compound, the TGI (SW-620 colon) was > 100 µM, the TGI (T-47D breast) was > 100 µM and the TGI (TK-10 renal) was 7.51 µM. For the same compound, the TGI (U251 CNS) was > 100 µM, the TGI (UACC-257 melanoma) was 77.1 µM and the GI50 (UACC-62 melanoma) was 1.48 µM. The TGI (UACC-62 melanoma) was 37.5 µM and the TGI (UO-31 renal) was 61.2 µM.

In the case of `CC(=O)OC1CC2CC(=O)CC1N2C` (stereo not drawn), the TGI (786-0 renal) is reported as > 100 µM, the TGI (A498 renal) is reported as > 100 µM and the TGI (A549 NSCLC) is reported as > 100 µM. The TGI (ACHN renal) was > 100 µM, the TGI (CAKI-1 renal) was > 100 µM and the TGI (CCRF-CEM leukemia) was > 100 µM. For the same compound, the TGI (COLO 205 colon) was > 100 µM, the TGI (DU-145 prostate) was > 100 µM and the TGI (EKVX NSCLC) was > 100 µM. The TGI (HCC-2998 colon) was > 100 µM, the TGI (HCT-116 colon) was > 100 µM and the TGI (HCT-15 colon) was > 100 µM. For the same compound, the TGI (HL-60(TB) leukemia) was > 100 µM, the TGI (HOP-62 NSCLC) was > 100 µM and the TGI (HOP-92 NSCLC) was > 100 µM. For the same compound, the TGI (HS 578T breast) was > 100 µM, the TGI (HT29 colon) was > 100 µM and the TGI (IGROV1 ovarian) was > 100 µM. The TGI (K-562 leukemia) was > 100 µM, the TGI (KM12 colon) was > 100 µM and the TGI (LOX IMVI melanoma) was > 100 µM. For the same compound, the TGI (M14 melanoma) was > 100 µM, the TGI (MALME-3M melanoma) was > 100 µM and the TGI (MCF7 breast) was > 100 µM. The TGI (MDA-MB-231 breast) was > 100 µM, the TGI (MDA-MB-435) was > 100 µM and the TGI (MDA-N) was > 100 µM. The TGI (MOLT-4 leukemia) was > 100 µM, the TGI (NCI-H226 lung) was > 100 µM and the TGI (NCI-H23 lung) was > 100 µM. The TGI (NCI-H460 lung) was > 100 µM, the TGI (NCI-H522 lung) was > 100 µM and the TGI (NCI/ADR-RES ovarian) was > 100 µM. For the same compound, the TGI (OVCAR-3 ovarian) was > 100 µM, the TGI (OVCAR-4 ovarian) was > 100 µM and the TGI (OVCAR-5 ovarian) was > 100 µM. The TGI (OVCAR-8 ovarian) was > 100 µM, the TGI (PC-3 prostate) was > 100 µM and the TGI (RPMI-8226 leukemia) was > 100 µM. For the same compound, the TGI (RXF 393 renal) was > 100 µM, the TGI (SF-268 CNS) was > 100 µM and the TGI (SF-295 CNS) was > 100 µM. For the same compound, the TGI (SF-539 CNS) was > 100 µM, the TGI (SK-MEL-2 melanoma) was > 100 µM and the TGI (SK-MEL-28 melanoma) was > 100 µM. The TGI (SK-MEL-5 melanoma) was > 100 µM, the TGI (SK-OV-3 ovarian) was > 100 µM and the TGI (SN12C renal) was > 100 µM. For the same compound, the TGI (SNB-19 CNS) was > 100 µM, the TGI (SNB-75 CNS) was > 100 µM and the TGI (SR leukemia) was > 100 µM. For the same compound, the TGI (SW-620 colon) was > 100 µM, the TGI (T-47D breast) was > 100 µM and the TGI (TK-10 renal) was > 100 µM. The TGI (U251 CNS) was > 100 µM, the TGI (UACC-257 melanoma) was > 100 µM and the TGI (UACC-62 melanoma) was > 100 µM. The TGI (UO-31 renal) was > 100 µM.

For `O=C(NCCOC(=O)OCCNC(=O)NC1CCCCC1)NC1CCCCC1`, the TGI (786-0 renal) was > 100 µM, the TGI (A498 renal) was > 100 µM and the TGI (A549 NSCLC) was > 100 µM. The TGI (ACHN renal) was > 100 µM, the TGI (CAKI-1 renal) was > 100 µM and the TGI (CCRF-CEM leukemia) was > 100 µM. The TGI (COLO 205 colon) was > 100 µM, the TGI (DU-145 prostate) was > 100 µM and the TGI (EKVX NSCLC) was > 100 µM. For the same compound, the TGI (HCC-2998 colon) was > 100 µM, the TGI (HCT-116 colon) was > 100 µM and the TGI (HCT-15 colon) was > 100 µM. The TGI (HL-60(TB) leukemia) was > 100 µM, the TGI (HOP-62 NSCLC) was > 100 µM and the TGI (HOP-92 NSCLC) was 79 µM. The TGI (HS 578T breast) was > 100 µM, the TGI (HT29 colon) was > 100 µM and the TGI (IGROV1 ovarian) was > 100 µM. The TGI (K-562 leukemia) was > 100 µM, the TGI (KM12 colon) was > 100 µM and the TGI (LOX IMVI melanoma) was > 100 µM. The TGI (M14 melanoma) was > 100 µM, the TGI (MALME-3M melanoma) was > 100 µM and the TGI (MCF7 breast) was > 100 µM. For the same compound, the TGI (MDA-MB-231 breast) was > 100 µM, the TGI (MDA-MB-435) was > 100 µM and the TGI (MDA-N) was > 100 µM. The TGI (MOLT-4 leukemia) was > 100 µM, the TGI (NCI-H226 lung) was > 100 µM and the TGI (NCI-H23 lung) was > 100 µM. For the same compound, the TGI (NCI-H460 lung) was > 100 µM, the TGI (NCI-H522 lung) was > 100 µM and the TGI (NCI/ADR-RES ovarian) was > 100 µM. For the same compound, the TGI (OVCAR-3 ovarian) was > 100 µM, the TGI (OVCAR-4 ovarian) was > 100 µM and the TGI (OVCAR-5 ovarian) was > 100 µM. The TGI (OVCAR-8 ovarian) was > 100 µM, the TGI (PC-3 prostate) was > 100 µM and the TGI (RPMI-8226 leukemia) was > 100 µM. The TGI (RXF 393 renal) was > 100 µM, the TGI (SF-268 CNS) was > 100 µM and the TGI (SF-295 CNS) was > 100 µM. The TGI (SF-539 CNS) was > 100 µM, the TGI (SK-MEL-2 melanoma) was > 100 µM and the TGI (SK-MEL-28 melanoma) was > 100 µM. For the same compound, the TGI (SK-MEL-5 melanoma) was > 100 µM, the TGI (SK-OV-3 ovarian) was > 100 µM and the TGI (SN12C renal) was > 100 µM. The TGI (SNB-19 CNS) was > 100 µM, the TGI (SNB-75 CNS) was > 100 µM and the TGI (SR leukemia) was > 100 µM. For the same compound, the TGI (SW-620 colon) was > 100 µM, the TGI (T-47D breast) was > 100 µM and the TGI (TK-10 renal) was > 100 µM. The TGI (U251 CNS) was > 100 µM, the TGI (UACC-257 melanoma) was > 100 µM and the TGI (UACC-62 melanoma) was > 100 µM. The TGI (UO-31 renal) was > 100 µM.
